Assay results as given in patent US20070264355A1, “BINARY COMPOSITIONS AND METHODS FOR STERILIZATION” (Binary, LLC, priority 2005, published 2007).
Entries after “also recorded” stand apart in the source; their conditions may differ.

Legend:
Assay type in all cases: cell-based
Staphylococcus aureus = assay: Microbicidal activity of commonly used antiseptics against Staphylococcus aureus; details: inoculum 1475000 CFU
Description: (§1) The performance of commonly used antiseptics was tested against Bacillus subtilis and Staphylococcus aureus, following the general procedure of Example 1, to assess the improvement provided by the binary system over these compounds.
[…] Chlorhexidine and IPA were neutralized with 500 microliters of a solution containing 3% Saponin, 3% Tween-80, 0.3% lecithin, and 0.1% histidine. Povidone Iodine was neutralized with 500 microliters of thiosulfate solution (2.4%).

Bacillus subtilis spores = assay: Microbicidal activity of commonly used antiseptics against Bacillus subtilis spores
Description: as §1
After 60 minutes of exposure to the organisms, the individual antiseptics, indicated in Table 15 and Table 16, were neutralized using the corresponding neutralizing solutions prepared as listed below in Materials. Chlorhexidine and IPA were neutralized with 500 microliters of a solution containing 3% Saponin, 3% Tween-80, 0.3% lecithin, and 0.1% histidine. Povidone Iodine was neutralized with 500 microliters of thiosulfate solution (2.4%).

[1] = test system: Staphylococcus aureus (ATCC 6538); assay: Microbicidal activity against Staphylococcus aureus (suspension test, surviving CFU)
Description: Bacterial suspensions, specifically Staphylococcus aureus (ATCC 6538) in this example, were prepared by the shake flask method to achieve late log to early stationary phase growth. Bacteria were grown 24 hours in trypticase soy broth (TSB) at 35° C. The cultures were centrifuged at 4,000 rpm for 10 minutes and the supernatants removed. The pellet was collected and washed twice with sterile 0.9% normal saline. The washed microorganisms were suspended and diluted with normal saline to a 3 McFarland standard, i.e., approximately 10^9 bacteria colony forming units (CFU) per ml. Actual colony counts are confirmed by serial dilutions (10^−1 to 10^−5 or 10^−6) plated on trypticase soy agar (TSA) and incubated overnight at 35° C. One hundred microliters of organisms from a stock of 10^7 CFU/ml were used to obtain an approximate final working target inoculum of 10^6 CFU. The microbicidal test is conducted in a vial containing 1.4 ml of final reaction mixture after neutralization.
(§2) Each solution was used alone for the individual controls. Organism suspensions were used to achieve a final target concentration of 2-3×10^6 CFU per ml. For the binary system treatments, sodium hypochlorite solution and hydrogen peroxide solution, non-acidified or acidified, were sequentially added to the microorganisms. Acidified hydrogen peroxide solution was obtained by the addition of 1.0% v/v of 0.001 N hydrochloride solution. After each addition, the resulting mixture was allowed to remain in contact with the organisms for a set amount of time at room temperature (about 22° C.), as listed in the Tables 1 and 2. At the end of the treatment time, the mixtures were neutralized with 200 to 500 microliters of thiosulfate solution (2.4%) to quench the activity of sodium hypochlorite and then treated with 100 to 200 microliters of a 1% catalase solution, containing a minimum of 100 units/ul, to quench the hydrogen peroxide activity. If needed, an appropriate volume of sterile saline was added to bring the final volume of reaction mixture to 1.4 ml after neutralization. Serial dilution plate counts were performed from the contents of each vial in sterile saline and inoculated onto TSA for quantitative culture. Plates were then incubated at 37° C. and counts taken at 24 hours.
After an additional 30 minutes, the binary system mixture was then neutralized using 2.4% thiosulfate followed by 1% catalase as described in the Methods Section.

[2] = test system: Bacillus subtilis (ATCC 19659) spores; assay: Microbicidal activity against Bacillus subtilis spores (suspension test, surviving CFU)
Text: as §2
Suspensions of Bacillus subtilis (ATCC 19659) containing 100% spores, as confirmed by microscopy, were obtained by washing the spun-down cells with 50% ethanol to eliminate the vegetative form. Starting inoculum of approximately 1-3×10^6 CFU was used as in Example 1.
[…] The binary system was neutralized 30 minutes after addition of hydrogen peroxide using 2.4% thiosulfate and 1% catalase as described in Example 1.

[3] = test system: Escherichia coli (ATCC 25922); assay: Microbicidal activity against Escherichia coli (suspension test, surviving CFU); details: H2O2 88 mM 15 min; inoculum 1630000 CFU
Text: as §2, with “hours. […]” for “hours.”

[4] = PVI 10.00% 60 min, inoculum 1120000 CFU
[5] = IPA 0.07% 60 min, inoculum 1865000 CFU
[6] = IPA 0.70% 60 min, inoculum 1865000 CFU
[7] = IPA 7% 60 min, inoculum 1865000 CFU
[8] = IPA 70% 60 min, inoculum 1865000 CFU
[9] = H2O2 0.35 mM 30 min, inoculum 2530000 CFU
[10] = H2O2 88 mM 5 min, inoculum 1600000 CFU
[11] = H2O2 88 mM 15 min, inoculum 1600000 CFU
[12] = H2O2 88 mM 30 min, inoculum 1600000 CFU
[13] = H2O2 294 mM 5 min, inoculum 1600000 CFU
[14] = H2O2 294 mM 15 min, inoculum 1600000 CFU
[15] = H2O2 294 mM 30 min, inoculum 1600000 CFU
[16] = H2O2 882 mM 5 min, inoculum 1600000 CFU
[17] = H2O2 882 mM 15 min, inoculum 1600000 CFU
[18] = H2O2 882 mM 30 min, inoculum 1600000 CFU
[19] = H2O2 2940 mM 5 min, inoculum 1600000 CFU
[20] = H2O2 2940 mM 15 min, inoculum 1600000 CFU
[21] = H2O2 2940 mM 30 min, inoculum 1600000 CFU
[22] = H2O2 8821 mM 5 min, inoculum 1600000 CFU
[23] = H2O2 8821 mM 15 min, inoculum 1600000 CFU
[24] = H2O2 8821 mM 30 min, inoculum 1600000 CFU
[25] = H2O2 35.25 mM 30 min, inoculum 1120000 CFU
[26] = H2O2 88 mM 60 min, inoculum 1865000 CFU
[27] = H2O2 294 mM 60 min, inoculum 1865000 CFU
[28] = H2O2 882 mM 60 min, inoculum 1865000 CFU
[29] = H2O2 2940 mM 60 min, inoculum 1865000 CFU
[30] = H2O2 8821 mM 60 min, inoculum 1865000 CFU
[31] = H2O2/H+ 0.35 mM 30 min, inoculum 2530000 CFU
[32] = H2O2/H+ 35.25 mM 30 min, inoculum 1120000 CFU

Molecule: Povidone Iodine [PVI]
- Log 10 (CFU + 1) Survivors (Staphylococcus aureus; PVI 10.00% 15 min): 0.0
- Log Reduction (Staphylococcus aureus; PVI 10.00% 15 min): 6.2
- Total Viability (CFU) (Staphylococcus aureus; PVI 10.00% 15 min): 0 CFU
- Log 10 (CFU + 1) Survivors (Bacillus subtilis spores; [4]): 5.3
- Log Reduction (Bacillus subtilis spores; [4]): 0.8
- Total Viability (CFU) (Bacillus subtilis spores; [4]): 189000 CFU

Molecule: CC(C)O [IPA, Isopropyl Alcohol]
- Log 10 (CFU + 1) Survivors (Staphylococcus aureus; IPA 0.07% 15 min): 6.3
- Log Reduction (Staphylococcus aureus; IPA 0.07% 15 min): −0.1
- Total Viability (CFU) (Staphylococcus aureus; IPA 0.07% 15 min): 1932000 CFU
- Log 10 (CFU + 1) Survivors (Staphylococcus aureus; IPA 0.70% 15 min): 6.3
- Log Reduction (Staphylococcus aureus; IPA 0.70% 15 min): −0.1
- Total Viability (CFU) (Staphylococcus aureus; IPA 0.70% 15 min): 1988000 CFU
- Log 10 (CFU + 1) Survivors (Staphylococcus aureus; IPA 7% 15 min): 6.3
- Log Reduction (Staphylococcus aureus; IPA 7% 15 min): −0.1
- Total Viability (CFU) (Staphylococcus aureus; IPA 7% 15 min): 1834000 CFU
- Log 10 (CFU + 1) Survivors (Staphylococcus aureus; IPA 70% 15 min): 0.0
- Log Reduction (Staphylococcus aureus; IPA 70% 15 min): 6.2
- Total Viability (CFU) (Staphylococcus aureus; IPA 70% 15 min): 0 CFU
- Log 10 (CFU + 1) Survivors (Bacillus subtilis spores; [5]): 6.4
- Log Reduction (Bacillus subtilis spores; [5]): −0.1
- Total Viability (CFU) (Bacillus subtilis spores; [5]): 2422000 CFU
- Log 10 (CFU + 1) Survivors (Bacillus subtilis spores; [6]): 6.3
- Log Reduction (Bacillus subtilis spores; [6]): −0.1
- Total Viability (CFU) (Bacillus subtilis spores; [6]): 2170000 CFU
- Log 10 (CFU + 1) Survivors (Bacillus subtilis spores; [7]): 6.4
- Log Reduction (Bacillus subtilis spores; [7]): −0.1
- Total Viability (CFU) (Bacillus subtilis spores; [7]): 2352000 CFU
- Log 10 (CFU + 1) Survivors (Bacillus subtilis spores; [8]): 6.3
- Log Reduction (Bacillus subtilis spores; [8]): 0.0
- Total Viability (CFU) (Bacillus subtilis spores; [8]): 2044000 CFU
- activity against B. subtilis spores (Bacillus subtilis spores; any concentration tested, 60 min): did not demonstrate activity

Molecule: OO [H2O2, hydrogen peroxide]
- Log 10 (CFU + 1) Survivors [1, 9]: 6.2
- Log Reduction [1, 9]: 0.2
- Total Viability (CFU) [1, 9]: 1764000 CFU
- Log 10 (CFU + 1) Survivors [1, 10]: 6.2
- Log Reduction [1, 10]: 0.0
- Total Viability (CFU) [1, 10]: 1694000 CFU
- Log 10 (CFU + 1) Survivors [1, 11]: 6.3
- Log Reduction [1, 11]: −0.1
- Total Viability (CFU) [1, 11]: 2044000 CFU
- Log 10 (CFU + 1) Survivors [1, 12]: 6.3
- Log Reduction [1, 12]: −0.1
- Total Viability (CFU) [1, 12]: 1792000 CFU
- Log 10 (CFU + 1) Survivors [1, 13]: 6.1
- Log Reduction [1, 13]: 0.1
- Total Viability (CFU) [1, 13]: 1288000 CFU
- Log 10 (CFU + 1) Survivors [1, 14]: 6.1
- Log Reduction [1, 14]: 0.1
- Total Viability (CFU) [1, 14]: 1190000 CFU
- Log 10 (CFU + 1) Survivors [1, 15]: 1.3
- Log Reduction [1, 15]: 4.9
- Total Viability (CFU) [1, 15]: 21 CFU
- Log 10 (CFU + 1) Survivors [1, 16]: 4.1
- Log Reduction [1, 16]: 2.1
- Total Viability (CFU) [1, 16]: 12040 CFU
- Log 10 (CFU + 1) Survivors [1, 17]: 0.0
- Log Reduction [1, 17]: 6.2
- Total Viability (CFU) [1, 17]: 0 CFU
- Log 10 (CFU + 1) Survivors [1, 18]: 0.0
- Log Reduction [1, 18]: 6.2
- Total Viability (CFU) [1, 18]: 0 CFU
- Log 10 (CFU + 1) Survivors [1, 19]: 0.0
- Log Reduction [1, 19]: 6.2
- Total Viability (CFU) [1, 19]: 0 CFU
- Log 10 (CFU + 1) Survivors [1, 20]: 0.0
- Log Reduction [1, 20]: 6.2
- Total Viability (CFU) [1, 20]: 0 CFU
- Log 10 (CFU + 1) Survivors [1, 21]: 0.0
- Log Reduction [1, 21]: 6.2
- Total Viability (CFU) [1, 21]: 0 CFU
- Log 10 (CFU + 1) Survivors [1, 22]: 0.0
- Log Reduction [1, 22]: 6.2
- Total Viability (CFU) [1, 22]: 0 CFU
- Log 10 (CFU + 1) Survivors [1, 23]: 0.0
- Log Reduction [1, 23]: 6.2
- Total Viability (CFU) [1, 23]: 0 CFU
- Log 10 (CFU + 1) Survivors [1, 24]: 0.0
- Log Reduction [1, 24]: 6.2
- Total Viability (CFU) [1, 24]: 0 CFU
- microbicidal activity (kill of inoculum) ([1]; highest concentration of hydrogen peroxide used in the binary system, tested alone): completely ineffective and produced no kill
- microbicidal activity (kill of inoculum) ([1]; hydrogen peroxide 88 mM, within 30 minutes): no microbicidal activity; also recorded: not microbicidal
- microbicidal activity (kill of inoculum) ([1]; hydrogen peroxide 8821 and 2940 mM, within 5 minutes, 6.2 log10 CFU inoculum): complete kill
- microbicidal activity (kill of inoculum) ([1]; hydrogen peroxide intermediate concentrations): partial kill
- Log 10 (CFU + 1) Survivors [2, 25]: 6.1
- Log Reduction [2, 25]: −0.1
- Total Viability (CFU) [2, 25]: 1358000 CFU
- Log 10 (CFU + 1) Survivors [2, 26]: 6.3
- Log Reduction [2, 26]: 0.0
- Total Viability (CFU) [2, 26]: 1974000 CFU
- Log 10 (CFU + 1) Survivors [2, 27]: 6.2
- Log Reduction [2, 27]: 0.1
- Total Viability (CFU) [2, 27]: 1484000 CFU
- Log 10 (CFU + 1) Survivors [2, 28]: 5.3
- Log Reduction [2, 28]: 1.0
- Total Viability (CFU) [2, 28]: 200200 CFU
- Log 10 (CFU + 1) Survivors [2, 29]: 2.8
- Log Reduction [2, 29]: 3.5
- Total Viability (CFU) [2, 29]: 588 CFU
- Log 10 (CFU + 1) Survivors [2, 30]: 0.0
- Log Reduction [2, 30]: 6.3
- Total Viability (CFU) [2, 30]: 0 CFU
- microbicidal activity (kill of inoculum) ([2]; hydrogen peroxide 8821 mM, within 60 minutes, 6.3 log10 CFU inoculum): complete kill
- microbicidal activity (kill of inoculum) ([2]; hydrogen peroxide 294 to 88 mM, within 60 minutes): no microbicidal activity
- microbicidal activity (kill of inoculum) ([2]; hydrogen peroxide 2940 and 882 mM, 60 minutes): partial kill
- Log 10 (CFU + 1) Survivors [3]: 5.8
- Log Reduction [3]: 0.4
- Total Viability (CFU) [3]: 588000 CFU

Molecule: OO [H2O2/H+, hydrogen peroxide]
- Log 10 (CFU + 1) Survivors [1, 31]: 6.2
- Log Reduction [1, 31]: 0.2
- Total Viability (CFU) [1, 31]: 1708000 CFU
- Log 10 (CFU + 1) Survivors [2, 32]: 6.2
- Log Reduction [2, 32]: −0.2
- Total Viability (CFU) [2, 32]: 1624000 CFU
